Assay results reported in patent US20250282812A1, “ANTIVIRAL NUCLEOSIDE ANALOGUE, AND PHARMACEUTICAL COMPOSITION AND USE THEREOF” (SHANGHAI INSTITUTE OF MATERIA MEDICA , CHINESE ACADEMY OF …, priority 2022, published 2025).
≈ marks a conversion by molar mass, not a printed value.

Experiments:
[1] = system: influenza virus (IFV) A/California/07/2009 (H1N1) pdm09 strain; assay: In vitro activity against influenza virus (CPE, CCK8, MDCK cells); format: cell-based; conditions: 120 h, read-out: IFV (MDCK) EC50
[2] = system: respiratory syncytial virus (RSV) A long strain; assay: In vitro activity against respiratory syncytial virus (CPE, CCK8, HEp-2 cells); format: cell-based; conditions: human respiratory syncytial virus, 120 h, MOI=0.02, 5 days
SFTSV-Nluc [3] = assay: microbe, parasite or virus in culture; format: cell-based, severe fever with thrombocytopenia syndrome virus (SFTSV); conditions: Severe fever with thrombocytopenia syndrome virus, Vero, 48 h; for inhibition at 10 µM: read-out: Inhibition rate (10 μM)
in vitro = conditions: dog
[4] = Cytotoxicity in HEp-2 cells (CCK8); conditions: human
[5] = Stability test of compounds in solutions at different pH values
[6] = Solubility of compounds in water; conditions: thermodynamic from solid
[7] = system: influenza virus Influenza A/PR/8/34 (PR8); assay: In vivo efficacy for influenza virus in mice; parameters: species or system Balb/C mice; conditions: for body weight after 4 days of infection compared with the initial body weight: intragastric once daily Day 0-3, X219 hydrochloride 10, 20 and 30 mpk, favipiravir 200 mpk
SFTSV-Nluc [8] = system: SFTSV-Nluc; parameters: species or system A129 mice; conditions: mouse
[9] = system: respiratory syncytial virus (RSV A2); assay: In vivo efficacy for respiratory syncytial virus (RSV) in mice
[10] = buffered saline solution pH 4.0, 3 h
[11] = buffered saline solution pH 4.0, 6 h
[12] = buffered saline solution pH 4.0, 9 h
[13] = buffered saline solution pH 4.0, 12 h
[14] = buffered saline solution pH 4.0, 15 h
[15] = buffered saline solution pH 4.0, 18 h
[16] = buffered saline solution pH 4.0, 21 h
[17] = buffered saline solution pH 4.0, 24 h
[18] = buffered saline solution pH 6.8, 3 h
[19] = buffered saline solution pH 6.8, 6 h
[20] = buffered saline solution pH 6.8, 9 h
[21] = buffered saline solution pH 6.8, 12 h
[22] = buffered saline solution pH 6.8, 15 h
[23] = buffered saline solution pH 6.8, 18 h
[24] = buffered saline solution pH 6.8, 21 h
[25] = buffered saline solution pH 6.8, 24 h

Compound	EC50 [1] [nM]	EC50 [2] [nM]	EC50 (SFTSV-Nluc [3]) [nM]	inhibition at 10 µM (SFTSV-Nluc [3]) [%]	CC50 (in vitro) [nM]	CC50 at 5 days [4] [nM]	Content reduction (%) [5, 10] [%]	Content reduction (%) [5, 11] [%]	Content reduction (%) [5, 12] [%]	Content reduction (%) [5, 13] [%]	Content reduction (%) [5, 14] [%]	Content reduction (%) [5, 15] [%]	Content reduction (%) [5, 16] [%]	Content reduction (%) [5, 17] [%]	Content reduction (%) [5, 18] [%]	Content reduction (%) [5, 19] [%]	Content reduction (%) [5, 20] [%]	Content reduction (%) [5, 21] [%]	Content reduction (%) [5, 22] [%]	solubility at 15 min [6] [µg/mL]	other results
CC(C)C(=O)OC[C@@]1(F)O[C@@H](n2ccc(=O)n(COC(=O)c3cccnc3)c2=O)[C@H](OC(=O)C(C)C)[C@@H]1OC(=O)C(C)C [Compound X206]	380	2430	1730	93.7	> 10000	> 10000	0.01	0.03	0.02	0.03	0.03	0.01	0.03	0.0	1.93	3.09	3.84	4.06	5.72		Content reduction (%) [5, 23]: 6.34%; Content reduction (%) [5, 24]: 7.28%; Content reduction (%) [5, 25]: 8.16%
CC(=O)OC[C@@]1(F)O[C@@H](n2ccc(=O)n(COC(=O)c3cccnc3)c2=O)[C@H](OC(C)=O)[C@@H]1OC(C)=O [Compound X219]	3920	2600	3390	91.7	> 10000	> 10000	0.22	0.34	0.44	0.62	0.70	0.78	0.93	1.02	1.06	1.86	2.92	3.96	5.27	700 (≈ 1340 µM)	Content reduction (%) [5, 23]: 6.01%; Content reduction (%) [5, 24]: 7.02%; Content reduction (%) [5, 25]: 8.38%
Br.CC(=O)OC[C@@]1(F)O[C@@H](n2ccc(=O)n(COC(=O)c3cccnc3)c2=O)[C@H](OC(C)=O)[C@@H]1OC(C)=O [X219 hydrobromide]																				17600	
Br.CC(=O)O[C@H]1[C@H](n2ccc(=O)n(COC(=O)c3cccnc3)c2=O)O[C@](F)(COC(=O)C(C)C)[C@H]1OC(C)=O [X265 hydrobromide]																				8050	
CC(C)C(=O)OCn1c(=O)ccn([C@@H]2O[C@](F)(COC(=O)C(C)C)[C@@H](O)[C@H]2O)c1=O [Compound X51]	< 370	2150	430	94.1	> 10000	> 10000	1.6	2.5	3.1	3.4	3.9	4.6	5.2	5.6	1.1	2.0	3.0	3.8	4.7		Content reduction (%) [5, 23]: 5.6%; Content reduction (%) [5, 24]: 6.5%; Content reduction (%) [5, 25]: 7.4%
NC(=O)c1nc(F)c[nH]c1=O [favipiravir, reference compound]																					body weight after 4 days of infection compared with the initial body weight ([7]; […]): did not change significantly; in vivo fluorescence imaging, fluorescence intensity on ventral and dorsal side (SFTSV-Nluc [8]): weak fluorescence intensity
CC(=O)OC[C@@]1(F)O[C@@H](n2ccc(=O)[nH]c2=O)[C@H](OC(C)=O)[C@@H]1OC(C)=O [Compound X219-1]																				150 (≈ 386 µM)	
CC(=O)O[C@H]1[C@H](n2ccc(=O)[nH]c2=O)O[C@](F)(COC(=O)C(C)C)[C@H]1OC(C)=O [Compound X265-3]																				100 (≈ 240 µM)	
CC(C)C(=O)OC[C@@]1(F)O[C@@H](n2ccc(=O)n(COC(=O)C3CCCCC3)c2=O)[C@H](O)[C@@H]1O [Compound X55]	< 370	1630	1040	93.6	> 10000	> 10000	2.4	4.9	6.9	9.0	10.8	12.7	14.2	15.4	1.0	2.3	3.3	4.4	5.4		Content reduction (%) [5, 23]: 6.4%; Content reduction (%) [5, 24]: 7.7%
CC(=O)O[C@H]1[C@H](n2ccc(=O)n(COC(=O)c3cccnc3)c2=O)O[C@](F)(COC(=O)C(C)C)[C@H]1OC(C)=O.Cl [X265 hydrochloride]																				19500	
CC(=O)OC[C@@]1(F)O[C@@H](n2ccc(=O)n(COC(=O)c3cccnc3)c2=O)[C@H](OC(C)=O)[C@@H]1OC(C)=O.Cl [X219 hydrochloride]							0.24	0.28	0.34	0.55	0.64	0.72	0.73	0.87	0.98	2.03	3.09	4.10	5.13	4740	pulmonary viral load compared with the PR8+vehicle group ([7]; […], X219 hydrochloride 10, 20, 30 mpk intragastric once daily, Day 4): significantly reduced; body weight after 4 days of infection compared with the initial body weight ([7]; […]): did not change significantly; reduction of pulmonary viral load compared with the PR8+vehicle group ([7]; dose 20 mg/kg intragastric once daily, Day 4): greater than 4 log10; reduction of pulmonary viral load compared with the PR8+vehicle group ([7]; dose 30 mg/kg intragastric once daily, Day 4): greater than 4 log10; levels of inflammatory factors (IL-6, IL-8, IL-1B, TNF-α, ISG-15, and TNF-1B) in the lungs compared with the PR8+vehicle group ([7]; lung tissue, Day 4): significantly lower; inhibitory effect on virus compared with the positive drug favipiravir (200 mpk) ([7]; pulmonary viral load, Day 4): significantly better; reduction in the pulmonary viral load compared with the vehicle group ([9]; 20 mpk intragastric once daily, Day 4): about 0.7 log10; change in the body weight ([9]; RSV A2-infected BALB/C mice, X219 hydrochloride 20 mpk or X28-1 10 mpk intragastric once daily): began to show an increase in the body weight on Day 3; Content reduction (%) [5, 23]: 6.13%; Content reduction (%) [5, 24]: 7.07%; Content reduction (%) [5, 25]: 8.02%
CC(C)C(=O)OC[C@@]1(F)O[C@@H](n2ccc(=O)n(COC(=O)c3cccnc3)c2=O)[C@H](O)[C@@H]1O [Compound X207]	380	4090	1890	91.8	> 10000	> 10000															
